From patent publication EP4458352A1, “EICOSAPENTAENOIC ACID ESTER DERIVATIVES FOR THE TREATMENT OF OBESITY” (Technische Universität Dresden, priority 2023, dated 2024)

Key:
[1] = tested on: primary adrenal cell cultures; experiment: Steroid hormone production (LC-MS/MS) in primary adrenal cell cultures treated with SC-26196, with or without ACTH or ARA; format: cell-based, WT C57BL/6J mice
Procedure: Adrenal glands or adrenal corteces were isolated from WT C57BL/6J mice, cleaned from the surrounding fat tissue and incubated in collagenase buffer (1.6 mg/ml collagenase type I, 1.6 mg/ml BSA) for 45 min at 37 °C, while shaking at 900 rpm. Dissociated cells were passed through 22 G needle and a 100 µm cell strainer and centrifuged at 300 × g for 5 min at 4 °C. Cells of a pool from two adrenals of each mouse were distributed in four 0.2 % gelatin-precoated wells of a 96-well plate in DMEM/F12 supplemented with 1 % FBS, 50 U/mL penicillin and 50 µg/mL streptomycin. Two hours after seeding 10 µM SC-26196 (Tocris, Wiesbaden-Nordenstadt, Germany) or same amount of carrier (DMSO) were added without changing the medium. In some experiments medium was additionally supplemented with 150 µM ARA (Sigma Aldrich, Germany) or same amount of solvent (endotoxin-free water). When induction of steroidogenesis was required, the medium was changed 18 h after treatment and the cells were incubated with or without 10 ng/mL ACTH for 60 min in the presence of either 10 µM SC-26196 or DMSO. Supernatants were kept for steroid hormone measurement and cell lysates were collected for transcriptional analysis. In some experiments, primary CD31-CD45- adrenocortical cells were treated or not for 18 h with 66 µM EPA (Sigma-Aldrich). Steroid hormones in plasma and cell culture supernatants were analyzed by LC-MS/MS as previously described (71). Fifty to hundred µL plasma or cell culture supernatants were extracted by solid phase extraction using positive pressure, followed by a dry-down under gentle stream of nitrogen. Residues were reconstituted in 100 µL of the initial LC mobile phase and 10 µL were injected for detection by the triple quadrupole mass spectrometer in multiple reaction-monitoring scan mode using positive electrospray ionization. Quantification of steroid concentrations was done by comparisons of ratios of analyte peak areas to respective peak areas of stable isotope labeled internal standards obtained in samples to those of calibrators.

adrenal cortex = experiment: RNA-Seq and GSEA of the adrenal cortex of HFD mice with or without icosapent ethyl; format: in vivo, WT C57BL/6J mice; details: HFD with icosapent ethyl versus HFD without; n=4 mice per group
Procedure: Six weeks-old male WT C57BL/6J mice were fed for 20 weeks a LFD (D12450B, Research Diets, NJ, USA) or a HFD (D12492, Research Diets, NJ, USA). In some experiments, WT C57BL/6J mice were fed for 8 weeks a HFD and for another 8 weeks a HFD supplemented with SC-26196 (Biorbyt Ltd). SC-26196 was mixed in the HFD at a concentration of 625 mg/kg of diet corresponding to approx. 100 mg/kg of animal weight. In other experiments WT mice were fed for 10 weeks a HFD and for another 10 weeks a HFD supplemented with icosapent ethyl (Vascepa). […]
For transcriptome mapping, strand-specific paired-end sequencing libraries from total RNA were constructed using TruSeq stranded Total RNA kit (Illumina Inc). […] Low quality nucleotides were removed with the Illumina fastq filter and reads were further subjected to adaptor trimming using cutadapt (85). Alignment of the reads to the Mouse genome was done using STAR Aligner (86) using the parameters: "-runMode alignReads -outSAMstrandField intronMotif-outSAMtype BAM SortedByCoordinate-readFilesCommand zcat". […] The parameters: `htseq-count -f bam -s reverse -m union -a 20', HTSeq-0.6.1p1 (87) were used to count the reads that map to the genes in the aligned sample files. The GTF file (gencode.vM12.annotation.gtf) used for read quantification was downloaded from Gencode (https://www.gencodegenes.org/mouse/release_M12.html). […]

[2] = ARA 150 µM with SC-26196 10 µM, 18 h, n=6-8

| SMILES | 11-deoxycorticosterone production in cells treated with SC-26196 [1, 2] | corticosterone production in cells treated with SC-26196 [1, 2] | progesterone production in cells treated with SC-26196 [1, 2] | steroidogenesis in adrenocortical cells ([1]; ARA supplementation (150 µM)) | genes being down-regulated in the adrenal cortex (RNA-Seq) (adrenal cortex) | genes being up-regulated in the adrenal cortex (RNA-Seq) (adrenal cortex) |
| --- | --- | --- | --- | --- | --- | --- |
| CCCCC/C=C\C/C=C\C/C=C\C/C=C\CCCC(=O)O [ARA, all-cis-5,8,11,14-eicosatetraenoic acid] | partially restored | partially restored | partially restored | increased steroidogenesis | – | – |
| CC/C=C\C/C=C\C/C=C\C/C=C\C/C=C\CCCC(=O)OCC [icosapent ethyl, eicosapentaenoic acid ethyl ester] | – | – | – | – | 162 | 266 |
